Source: patent publication US10961238B2, “Modulators of hedgehog (Hh) signaling pathway” (E-THERAPEUTICS PLC, priority 2016, dated 2021)
Read-outs that look alike come from different tables or passages of the source.

Experiments:
C3H10T1/2 cells = assay: C3H assay: differentiation of C3H10T1/2 cells by mSHH, measurement of alkaline phosphatase; type: cell-based, mouse
[1] = test system: SMO L416F mutant cell line; assay: C3H10T1/2 cell differentiation assay in SMO L416F mutant cell line versus wild type; type: cell-based, mouse; details: for Fold reduction in potency in SMO L416F mutant cell line: SMO L416F mutant cell line compared to the wild type, C3H10T1/2 cell differentiation assay
Source text: FIG. 1 is a graph of the percent inhibition of C3H10T1/2 cell differentiation of vismodegib compared to compound of the invention (compound number 174), in wild type versus SMO L416F mutant cell line.
Loss of Potency in C3H10T1/2 Cell Differentiation Assay Associated with Presence of SMO L416F Mutation.
Table 3 below details the number of fold reduction in potency of a range of compounds of the invention when applied to the SMO L416F mutant cell line compared to the wild type. SMO mutation has been described in the literature (Pricl, Sabrina, et al.) as a key mutation causative of vismodegib resistance in the clinic by interfering with drug binding.

SMO = molecular target: T1, SMO (Homo sapiens, UniProt Q99835); assay: Smoothened (SMO) binding fluorescence polarisation assay (BODIPY-cyclopamine competition); details: SMO binding FP assay versus C3H10T1/2 cellular assay
T1 construct: expressed in transfected cells; host or cells: HEK293
T1 sequence (Q99835 28-787): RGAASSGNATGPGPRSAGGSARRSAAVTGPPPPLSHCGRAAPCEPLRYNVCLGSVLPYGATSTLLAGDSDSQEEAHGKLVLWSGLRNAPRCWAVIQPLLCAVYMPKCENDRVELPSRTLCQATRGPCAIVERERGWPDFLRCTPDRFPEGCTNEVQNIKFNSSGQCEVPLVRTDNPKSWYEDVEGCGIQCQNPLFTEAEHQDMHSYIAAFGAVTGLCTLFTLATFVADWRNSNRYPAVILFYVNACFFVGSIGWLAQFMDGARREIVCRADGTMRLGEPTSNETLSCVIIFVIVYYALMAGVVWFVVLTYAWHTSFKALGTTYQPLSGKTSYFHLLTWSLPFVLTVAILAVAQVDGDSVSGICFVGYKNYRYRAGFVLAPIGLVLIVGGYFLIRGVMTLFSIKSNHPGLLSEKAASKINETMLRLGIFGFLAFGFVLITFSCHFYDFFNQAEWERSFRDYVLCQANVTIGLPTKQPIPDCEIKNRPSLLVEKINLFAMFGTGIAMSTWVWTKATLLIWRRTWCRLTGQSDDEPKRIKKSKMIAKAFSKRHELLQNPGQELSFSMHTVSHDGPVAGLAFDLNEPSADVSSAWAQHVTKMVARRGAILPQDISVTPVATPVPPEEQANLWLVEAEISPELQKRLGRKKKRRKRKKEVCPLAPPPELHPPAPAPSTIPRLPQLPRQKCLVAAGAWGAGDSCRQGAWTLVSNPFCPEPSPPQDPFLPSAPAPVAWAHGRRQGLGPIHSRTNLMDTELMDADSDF
Description: Standard Protocol for Smoothened (SMO) Binding Fluorescence Polarisation Assay.
The assay measures the ability of the test compounds to compete with a fluorescently-labelled version of the known ligand, cyclopamine, for binding to SMO. The fluorescent tag used is BODIPY (boron dipyrromethene).
An aliquot of a membrane preparation from a SMO-over-expressing HEK293 cell line is diluted to protein concentration of 0.117 mg/ml in assay buffer (25 mM HEPES, 2 mM EDTA, 0.05% γ-globulin, 0.01% pluronic acid pH7.4, plus protease Inhibitor cocktail). 8.5 μl of the membrane suspension is added to each well of a black, low volume 384 well microtitre plate.
Test compounds are added in a seven point dilution range to the wells containing the membrane preparation. The final DMSO solvent concentration in the wells is maintained at 0.3%. 6.5 μl of a 6.9 nM BODIPY-cyclopamine solution is added to each of the wells (final assay concentration 3 nM).
The plate is sealed and stored in the dark at room temperature for 24 hours prior to measurement of the fluorescence polarisation signal on a Perkin Elmer Envision multi-label reader.
Table 4 below details the ratio of SMO binding compared to the potency in the C3H10T1/2 cellular assay. The small ratio between SMO binding and potency for vismodegib is considered to be reflective of the fact vismodegib acts mainly through inhibition of the SMO protein. The larger ratios for the compound of the invention are considered to be reflective of alternate actions outside of direct SMO inhibition.

[2] = Mus musculus, C3H 10T1/2, C3H10T1/2 cells stimulated with mSHH for 72 hours, alkaline phosphatase activity, read-out: IC50 Ranges

Row | SMILES | IC50 (C3H10T1/2 cells; [2]) | Fold reduction in potency in SMO L416F mutant cell line [1] | Ratio of potency in SMO binding assay to potency in C3H10T1/2 cellular assay (SMO) | IC50 (C3H10T1/2 cells; C3H10T1/2 cells stimulated with mSHH for 72 hours, alkaline phosphatase activity, read-out: IC50 Ranges) | percent inhibition of C3H10T1/2 cell differentiation ([1]; FIG. 1, compared to vismodegib, wild type versus SMO L416F mutant cell line) | IC50 (C3H10T1/2 cells; Mus musculus, C3H 10T1/2, reference compounds run in the C3H assay, read-out: mean IC50)
1 | O=C(N1CCOCC1)N1CC(S(=O)(=O)N2CCC(c3c[nH]c4ncccc34)CC2)C1 [Compound 88, morpholin-4-yl-[3-[4-(1H-pyrrolo[2,3-b]pyridin-3-yl)piperidin-1-yl]sulfonylaze-tidin-1-yl]methanone] | 100 to 1000 nM | 27 |  |  |  | 
2 | CC(C)(C)NC(=O)N1CCC(S(=O)(=O)N2CCC(c3c[nH]c4ncccc34)CC2)CC1 [Compound 107, N-tert-butyl-4-[4-(1H-pyrrolo[2,3-b]pyridin-3-yl)piperidin-1-yl]sulfonylpiper-idine-1-carboxamide] | 10 to 100 nM | 56 | 20 |  |  | 
3 | Cc1noc(C)c1NC(=O)N1CC(S(=O)(=O)N2CCC(c3c[nH]c4ncccc34)CC2)C1 [Compound 120, N-(3,5-dimethyl-1,2-oxazol-4-yl)-3-[4-(1H-pyrrolo[2,3-b]pyridin-3-yl)piperidin-1-yl]sulfonylaze-tidine-1-carboxamide] | 10 to 100 nM | 38 |  |  |  | 
4 | CC(C)(C)OC(=O)N1CC(S(=O)(=O)N2CCC(c3cnc4occc4c3)CC2)C1 [Compound 124, tert-butyl 3-(4-furo[2,3-b]pyridin-5-ylpiperidin-1-yl)sulfonylaze-tidine-1-carboxylate] | 10 to 100 nM | 64 | 82 |  |  | 
5 | CC(C)(C)CN1CC(S(=O)(=O)N2CCC(c3c[nH]c4ncccc34)CC2)C1 [Compound 143, 3-[1-[1-(2,2-Dimethylpropyl)azetidin-3-yl]sulfonyl-4-piperidyl]-1H-pyrrolo[2,3-b]pyridine] | 100 to 1000 nM | 21 | >17 |  |  | 
6 | O=C(OCC1CCC1)N1CC(S(=O)(=O)N2CCC(c3cn(C(=O)OCC4CCC4)c4ncccc34)CC2)C1 [Compound 154, cyclobutylmethyl 3-[1-[1-(cyclobutylmethoxycarbonyl)azetidin-3-yl]sulfonylpiper-idin-4-yl]pyrrolo[2,3-b] pyridine-1-carboxylate] | 10 to 100 nM | 28 | 66 |  |  | 
7 | Cc1noc(C)c1OC(=O)N1CC(S(=O)(=O)N2CCC(c3c[nH]c4ncccc34)CC2)C1 [Compound 160, (3,5-dimethyl-1,2-oxazol-4-yl) 3-[4-(1H-pyrrolo[2,3-b]pyridin-3-yl)piperidin-1-yl]sulfonylaze-tidine-1-carboxylate] | < 10 nM | 29 |  |  |  | 
8 | CC(C)[C@H]1CC[C@H](C)C[C@@H]1OC(=O)N1CC(S(=O)(=O)N2CCC(c3c[nH]c4ncccc34)CC2)C1 [Compound 166, [(1S,2R,5S)-5-methyl-2-propan-2-ylcyclohexyl] 3-[4-(1H-pyrrolo[2,3-b]pyridin-3-yl)piperidin-1-yl]sulfonylaze-tidine-1-carboxylate] | < 10 nM | 51 |  |  |  | 
9 | O=C(OCC1CCCCC1)N1CC(S(=O)(=O)N2CCC(c3c[nH]c4ncccc34)CC2)C1 [Compound 168, cyclohexylmethyl 3-[4-(1H-pyrrolo[2,3-b]pyridin-3-yl)piperidin-1-yl]sulfonylaze-tidine-1-carboxylate] | 10 to 100 nM | 33 |  |  |  | 
10 | O=C(NC12CC3CC(CC(C3)C1)C2)N1CC(S(=O)(=O)N2CCC(c3c[nH]c4ncccc34)CC2)C1 [Compound 171, N-(1-adamantyl)-3-[4-(1H-pyrrolo [2,3-b]pyridin-3-yl)piperidin-1-yl]sulfonylaze-tidine-1-carboxamide] |  | 38 |  | < 10 nM |  | 
11 | CC(C)(C)NC(=S)N1CC(S(=O)(=O)N2CCC(c3c[nH]c4ncccc34)CC2)C1 [Compound 174, N-tert-butyl-3-[4-(1H-pyrrolo[2,3-b]pyridin-3-yl)piperidin-1-yl]sulfonylaze-tidine-1-carbothioamide] | 10 to 100 nM |  |  |  | a lower concentration of compound 174 is required to achieve the same percent inhibition of differentiation | 
12 | CC(C)(C)CC(C)(C)NC(=O)N1CC(S(=O)(=O)N2CCC(c3c[nH]c4ncccc34)CC2)C1 [Compound 175, 3-[4-(1H-pyrrolo[2,3-b]pyridin-3-yl)piperidin-1-yl]sulfonyl-N-(2,4,4-trimethylpentan-2-yl)azetidine-1-carboxamide] | < 10 nM | 40 |  |  |  | 
13 | CC(C)(C)OC(=O)N1CC(S(=O)(=O)N2CCC(c3csc4ncccc34)CC2)C1 [Compound 177, tert-butyl 3-(4-thieno [2,3-b]pyridin-3-ylpiperidin-1-yl)sulfonylaze-tidine-1-carboxylate] | 10 to 100 nM | 37 |  |  |  | 
14 | O=C(OCc1ccccc1C(F)(F)F)N1CC(S(=O)(=O)N2CCC(c3c[nH]c4ncccc34)CC2)C1 [Compound 216, [2-(trifluoromethyl)phenyl]methyl 3-[4-(1H-pyrrolo[2,3-b]pyridin-3-yl)piperidin-1-yl]sulfonylaze-tidine-1-carboxylate] | < 10 nM | 47 |  |  |  | 
15 | COc1ccccc1OC(=O)N1CC(S(=O)(=O)N2CCC(c3c[nH]c4ncccc34)CC2)C1 [Compound 217, (2-methoxyphenyl) 3-[4-(1H-pyrrolo[2,3-b]pyridin-3-yl)piperidin-1-yl]sulfonylaze-tidine-1-carboxylate] | < 10 nM | 34 |  |  |  | 
16 | Cc1ccnc2[nH]cc(C3CCN(S(=O)(=O)C4CN(C(=O)OC(C)(C)C)C4)CC3)c12 [Compound 223, tert-butyl 3-[4-(4-methyl-1H-pyrrolo[2,3-b]pyridin-3-yl)piperidin-1-yl]sulfonylaze-tidine-1-carboxylate] | 10 to 100 nM | 26 | 21 |  |  | 
17 | CC(C)(C)OC(=O)N1CCCC(S(=O)(=O)N2CCC(c3c[nH]c4ncccc34)CC2)C1 (centres unmarked) [Compound 248, tert-butyl 3-[4-(1H-pyrrolo[2,3-b]pyridin-3-yl)piperidin-1-yl]sulfonylpiper-idine-1-carboxylate] | 100 to 1000 nM | 10 |  |  |  | 
18 | CC(C)[C@@H](CO)NC(=O)N1CC(S(=O)(=O)N2CCC(c3c[nH]c4ncccc34)CC2)C1 [Compound 250, N-[(2S)-1-hydroxy-3-methylbutan-2-yl]-3-[4-(1H-pyrrolo[2,3-b]pyridin-3-yl)piperidin-1-yl]sulfonylaze-tidine-1-carboxamide] | 10 to 100 nM | 29 |  |  |  | 
19 | CS(=O)(=O)c1ccc(C(=O)Nc2ccc(Cl)c(-c3ccccn3)c2)c(Cl)c1 [Vismodegib, reference compound] |  | 202 | 2.2 |  |  | 6.3 nM
